{"source": "ChEMBL document CHEMBL4417621", "about": "“Methods to identify tas2r modulators” (2013)", "key": {"[1]": {"target": "T1, Taste receptor type 2 member 10 (Homo sapiens) (UniProt Q9NYW0)", "T1 sequence (whole entry)": "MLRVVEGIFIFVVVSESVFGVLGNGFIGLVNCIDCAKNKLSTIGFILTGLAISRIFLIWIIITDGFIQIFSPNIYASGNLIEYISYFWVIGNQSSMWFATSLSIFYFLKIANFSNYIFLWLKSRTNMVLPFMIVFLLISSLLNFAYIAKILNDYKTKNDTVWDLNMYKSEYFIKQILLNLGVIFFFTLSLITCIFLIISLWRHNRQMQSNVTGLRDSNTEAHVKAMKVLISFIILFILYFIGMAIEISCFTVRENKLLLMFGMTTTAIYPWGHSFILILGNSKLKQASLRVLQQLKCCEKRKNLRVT", "assay": "Activation of full-length human TAS2R10 expressed in HEK293T/Galpha16-gustducin 44 cells assessed as effect on calcium flux by measuring deltaF/F0 ratio at 0.7813 mM by Fluo-4 dye based FLIPR assay", "assay_type": "functional, cell-based"}, "[2]": {"target": "T2, Taste receptor type 2 member 31 (Homo sapiens) (UniProt P59538)", "T2 sequence (whole entry)": "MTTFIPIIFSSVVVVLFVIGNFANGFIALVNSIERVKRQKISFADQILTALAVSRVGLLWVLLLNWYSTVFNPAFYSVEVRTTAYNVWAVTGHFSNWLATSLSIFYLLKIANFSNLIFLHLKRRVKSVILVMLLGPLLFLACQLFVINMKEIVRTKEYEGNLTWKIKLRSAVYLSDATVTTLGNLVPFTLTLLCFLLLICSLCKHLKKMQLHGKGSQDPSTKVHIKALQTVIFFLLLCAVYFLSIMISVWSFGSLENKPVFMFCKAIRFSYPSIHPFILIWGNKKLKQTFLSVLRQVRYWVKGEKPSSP", "assay": "Activation of full-length human TAS2R44 expressed in HEK293T/Galpha16-gustducin 44 cells assessed as effect on calcium flux by measuring deltaF/F0 ratio at 25 mM by Fluo-4 dye based FLIPR assay (reference value: […] +/ - 0.017)", "assay_type": "functional, cell-based"}, "[3]": {"target": "T2, Taste receptor type 2 member 31 (Homo sapiens)", "assay": "Activation of full-length human TAS2R44 expressed in HEK293T/Galpha16-gustducin 44 cells assessed as effect on calcium flux by measuring deltaF/F0 ratio at 6.25 mM by Fluo-4 dye based FLIPR assay (reference value: 0.017 +/ - 0.009)", "assay_type": "functional, cell-based"}, "Homo sapiens": {"species": "Homo sapiens", "assay": "Induction of bitter sensitivity in bitter sensitive human panelists tasting solution containing 3 mM compound in absence of 13 ppm (E)-4-(2,2,3-trimethylcyclopent-3-enyl)but-2-enoic acid", "assay_type": "functional, organism-based"}, "[4]": {"target": "T3, Taste receptor type 2 member 1 (Homo sapiens) (UniProt Q9NYW7)", "T3 sequence (whole entry)": "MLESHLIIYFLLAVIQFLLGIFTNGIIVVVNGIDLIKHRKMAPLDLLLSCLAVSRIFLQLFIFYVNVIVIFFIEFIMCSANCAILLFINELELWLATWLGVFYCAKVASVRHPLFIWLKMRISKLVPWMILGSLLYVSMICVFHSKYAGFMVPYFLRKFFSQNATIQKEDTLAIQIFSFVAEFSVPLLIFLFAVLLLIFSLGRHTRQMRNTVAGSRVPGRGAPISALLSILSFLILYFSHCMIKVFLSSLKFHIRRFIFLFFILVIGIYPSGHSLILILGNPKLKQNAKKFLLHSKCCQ", "assay": "Activation of full-length human TAS2R1 expressed in HEK293T/Galpha16-gustducin 44 cells assessed as effect on calcium flux by measuring deltaF/F0 ratio at 3.125 mM by Fluo-4 dye based FLIPR assay", "assay_type": "functional, cell-based"}, "[5]": {"target": "T4, Taste receptor type 2 member 46 (Homo sapiens) (UniProt P59540)", "T4 sequence (whole entry)": "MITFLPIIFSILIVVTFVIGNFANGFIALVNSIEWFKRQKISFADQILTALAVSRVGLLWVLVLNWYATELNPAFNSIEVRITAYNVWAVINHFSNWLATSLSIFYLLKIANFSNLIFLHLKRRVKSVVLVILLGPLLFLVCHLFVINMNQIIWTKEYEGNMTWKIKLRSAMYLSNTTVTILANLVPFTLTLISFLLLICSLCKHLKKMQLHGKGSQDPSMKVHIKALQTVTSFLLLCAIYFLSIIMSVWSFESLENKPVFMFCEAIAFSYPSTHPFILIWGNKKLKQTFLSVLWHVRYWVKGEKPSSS", "assay": "Activation of full-length human TAS2R46 expressed in HEK293T/Galpha16-gustducin 44 cells assessed as effect on calcium flux by measuring deltaF/F0 ratio at 6.25 mM by Fluo-4 dye based FLIPR assay", "assay_type": "functional, cell-based"}, "[6]": {"target": "T4, Taste receptor type 2 member 46 (Homo sapiens)", "assay": "Activation of full-length human TAS2R46 expressed in HEK293T/Galpha16-gustducin 44 cells assessed as effect on calcium flux by measuring deltaF/F0 ratio at 0.3906 mM by Fluo-4 dye based FLIPR assay", "assay_type": "functional, cell-based"}, "[7]": {"target": "T3, Taste receptor type 2 member 1 (Homo sapiens)", "assay": "Activation of full-length human TAS2R1 expressed in HEK293T/Galpha16-gustducin 44 cells assessed as effect on calcium flux by measuring deltaF/F0 ratio at 0.7813 mM by Fluo-4 dye based FLIPR assay", "assay_type": "functional, cell-based"}, "[8]": {"target": "T3, Taste receptor type 2 member 1 (Homo sapiens)", "assay": "Activation of full-length human TAS2R1 expressed in HEK293T/Galpha16-gustducin 44 cells assessed as effect on calcium flux by measuring deltaF/F0 ratio at 12.5 mM by Fluo-4 dye based FLIPR assay", "assay_type": "functional, cell-based"}, "[9]": {"target": "T1, Taste receptor type 2 member 10 (Homo sapiens)", "assay": "Activation of full-length human TAS2R10 expressed in HEK293T/Galpha16-gustducin 44 cells assessed as effect on calcium flux by measuring deltaF/F0 ratio at 0.3906 mM by Fluo-4 dye based FLIPR assay", "assay_type": "functional, cell-based"}, "[10]": {"target": "T1, Taste receptor type 2 member 10 (Homo sapiens)", "assay": "Activation of full-length human TAS2R10 expressed in HEK293T/Galpha16-gustducin 44 cells assessed as effect on calcium flux by measuring deltaF/F0 ratio at 50 mM by Fluo-4 dye based FLIPR assay", "assay_type": "functional, cell-based"}, "[11]": {"target": "T1, Taste receptor type 2 member 10 (Homo sapiens)", "assay": "Activation of full-length human TAS2R10 expressed in HEK293T/Galpha16-gustducin 44 cells assessed as effect on calcium flux by measuring deltaF/F0 ratio at 6.25 mM by Fluo-4 dye based FLIPR assay", "assay_type": "functional, cell-based"}, "[12]": {"target": "T4, Taste receptor type 2 member 46 (Homo sapiens)", "assay": "Activation of full-length human TAS2R46 expressed in HEK293T/Galpha16-gustducin 44 cells assessed as effect on calcium flux by measuring deltaF/F0 ratio at 0.7813 mM by Fluo-4 dye based FLIPR assay", "assay_type": "functional, cell-based"}, "[13]": {"target": "T1, Taste receptor type 2 member 10 (Homo sapiens)", "assay": "Activation of full-length human TAS2R10 expressed in HEK293T/Galpha16-gustducin 44 cells assessed as effect on calcium flux by measuring deltaF/F0 ratio at 100 mM by Fluo-4 dye based FLIPR assay", "assay_type": "functional, cell-based"}, "[14]": {"target": "T2, Taste receptor type 2 member 31 (Homo sapiens)", "assay": "Activation of full-length human TAS2R44 expressed in HEK293T/Galpha16-gustducin 44 cells assessed as effect on calcium flux by measuring deltaF/F0 ratio at 50 mM by Fluo-4 dye based FLIPR assay (reference value: […] +/ - 0.016)", "assay_type": "functional, cell-based"}, "[15]": {"target": "T3, Taste receptor type 2 member 1 (Homo sapiens)", "assay": "Activation of full-length human TAS2R1 expressed in HEK293T/Galpha16-gustducin 44 cells assessed as effect on calcium flux by measuring deltaF/F0 ratio at 6.25 mM by Fluo-4 dye based FLIPR assay", "assay_type": "functional, cell-based"}, "[16]": {"target": "T4, Taste receptor type 2 member 46 (Homo sapiens)", "assay": "Activation of full-length human TAS2R46 expressed in HEK293T/Galpha16-gustducin 44 cells assessed as effect on calcium flux by measuring deltaF/F0 ratio at 100 mM by Fluo-4 dye based FLIPR assay", "assay_type": "functional, cell-based"}}, "note": "Calls of active or inactive are those of the source. No cut-off for these calls is given here.", "data": [{"molecule": "OC[C@H]1O[C@H](O[C@]2(CCl)O[C@H](CCl)[C@@H](O)[C@@H]2O)[C@H](O)[C@@H](O)[C@H]1Cl", "note": "[SUCRALOSE]", "values": [{"measurement": "Ratio", "setting": "[1]", "result": 0.05}, {"measurement": "Ratio", "setting": "[2]", "result": 0.197}, {"measurement": "Ratio", "setting": "[3]", "result": 0.059}, {"measurement": "Activity", "setting": "Homo sapiens", "result": "Active"}, {"measurement": "Ratio", "setting": "[4]", "result": 0.059}, {"measurement": "Ratio", "setting": "[5]", "result": 0.057}, {"measurement": "Ratio", "setting": "[6]", "result": 0.041}, {"measurement": "Ratio", "setting": "[7]", "result": 0.05}, {"measurement": "Ratio", "setting": "[8]", "result": 0.072}, {"measurement": "Ratio", "setting": "[9]", "result": 0.05}, {"measurement": "Ratio", "setting": "[10]", "result": 0.212}, {"measurement": "Ratio", "setting": "[11]", "result": 0.053}, {"measurement": "Ratio", "setting": "[12]", "result": 0.038}, {"measurement": "Ratio", "setting": "[13]", "result": 0.437}, {"measurement": "Ratio", "setting": "[14]", "result": 0.256}, {"measurement": "Ratio", "setting": "[15]", "result": 0.061}, {"measurement": "Ratio", "setting": "[16]", "result": 0.258}]}]}
